The text below walks through data of patent US12258299B2, “Permanent eco-fertilizer against fruit physiological disorders and pests” (S.A. Reverté Productos Minerales, priority 2019, dated 2025).

One series relates to Golden apple pulp. Briefly: Foliar fertilization of the pulp of Golden apples. Type of series: in vivo. The conditions noted are these: 30 kg/Ha, treatment last week of April. The procedure:
A first experiment was carried out to measure the foliar fertilization of Golden apples. The treatment was carried out the last week of April using a 3% weight suspension of the fertilizer as claimed in water (30 kg/1000 l water/Ha).

The nature of series [1]: Salt index of the fertilizer. Type of series: physicochemical.

Take `[Ca+2].[Cl-].[Cl-]` [CaCl2, calcium chloride]: in the series with Golden apple pulp, the Calcium was 24 ppm. Also, the salt index in series [1] is given as 87.
